One experiment deals with T1, ADAMTS-7 (Homo sapiens, UniProt Q9UKP4, A119V/A123T/A127T/A171V/A193G/A200T/A28V/A36P/A42G/A66V/A78S/A97T/D77A/DEL186-188/DEL228-233/E133D/E190K/E213K/E83Q/G114S/G115N/G117S/G196D/G27H/H100Y/H124S/H234Q/K153R/L143F/L192S/L20I/P189H/P201S/P29L/P33S/P79S/Q99P/R118N/R122Q/R174Q/R195Q/R215Q/R218H/R35L/R75A/R76Q/R87Q/R92L/S170E/S199R/S202G/S214H/T110I/T125V/V182M/V208G/V74A/W225K/Y209S).
T1 construct: rat ADAMTS-7 signal peptide + prodomain (rat 1-217), fusion partner (N); 2xStrep tag (C); 6xHis tag (C); made in house; host or cells: Expi293 cells
Kind of experiment: ADAMTS-7 enzymatic activity FRET assay, testing of inhibitory compounds. Type of experiment: biochemical. Here is the method: Purified recombinant ADAMTS-7 (as of SEQ ID NO: 1 or SEQ ID NO: 2) was diluted in reaction buffer (20 mM HEPES pH 8.0, 150 mM NaCl, 5 mM CaCl2, 0.004% Brij, 10 μM ZnCl2) for a concentration of approximately 20 nM. 25 μl of the solution were transferred into each well of a 384-well white microtiter plate (Greiner Bio-One 781075) and 1 μl test compound solution (modulator/inhibitor dissolved in DMSO, at the corresponding concentration) or pure DMSO as a control were added per well. […] Amino acids […] are derived from Thrombospondin-1 sequence (275-289). An additional carboxyl glutamic acid was added after the QXL520 quencher to increase substrate solubility. The microtiter plate was incubated for 120 min at the temperature of 32° C. The increase of fluorescence intensity was measured in appropriate fluorescence plate reader (e.g. TECAN Ultra) using excitation wavelength of 485 nm and emission wavelength of 520 nm. IC50 values were calculated from percentage of inhibition of ADAMTS-7 activity as a function of test compound concentration. IC50 values derived using functional ADAMTS-7 according to SEQ ID NO: 1 or SEQ ID NO: 2, respectively, were not distinguishable, both laying within the experimental error.
(§1) The assays to determine the IC50 for ADAMTS inhibition were performed as described earlier herein.

In the next experiment the target is T2, ADAMTS-4 (Homo sapiens, UniProt O75173).
T2 construct: purchased R&D 4307-AD
T2 sequence (O75173 213-837): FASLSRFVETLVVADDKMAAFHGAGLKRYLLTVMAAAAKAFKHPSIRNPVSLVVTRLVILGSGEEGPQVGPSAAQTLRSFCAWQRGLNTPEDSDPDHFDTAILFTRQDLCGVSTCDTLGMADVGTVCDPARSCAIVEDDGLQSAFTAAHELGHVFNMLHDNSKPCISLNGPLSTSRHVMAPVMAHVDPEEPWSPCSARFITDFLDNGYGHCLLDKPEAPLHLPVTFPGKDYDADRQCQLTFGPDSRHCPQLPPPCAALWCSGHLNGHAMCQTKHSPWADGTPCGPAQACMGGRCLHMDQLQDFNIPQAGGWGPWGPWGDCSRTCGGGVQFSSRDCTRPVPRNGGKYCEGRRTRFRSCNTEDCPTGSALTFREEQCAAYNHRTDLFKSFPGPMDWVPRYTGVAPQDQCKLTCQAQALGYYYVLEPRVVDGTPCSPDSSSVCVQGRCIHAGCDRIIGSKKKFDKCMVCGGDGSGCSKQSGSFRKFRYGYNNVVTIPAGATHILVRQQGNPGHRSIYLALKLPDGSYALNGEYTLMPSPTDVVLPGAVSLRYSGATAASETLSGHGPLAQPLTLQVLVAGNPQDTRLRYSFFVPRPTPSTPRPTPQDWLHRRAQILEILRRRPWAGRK
As to the kind of experiment: Selectivity FRET assay ADAMTS4. The conditions noted are these: ADAMTS4 50 nM, Dabcyl-[…]-Glu(Edans)-NH2 1 μM, 120 min, 32° C. Type of experiment: biochemical. On the procedure:
The respective enzyme (see Table 4 below) was diluted in reaction buffer (50 mM Tris, 2.5 μM ZnCl2, 0.05% BSA, 0.001% Brij, pH 7.5 for ADAM17; 50 mM Tris 7.5, 150 mM NaCl, 10 mM CaCl2, 0.05% Brij for all other enzymes) to the respective concentration and 25 μl were transferred into each well of a 384-well white microtiter plate (Greiner Bio One 781075). 1 μl test compound solution (dissolved in DMSO, at the corresponding concentration) or pure DMSO as a control was added per well. The enzymatic reaction was initiated by addition of 25 μl of the respective concentration of the respective FRET substrate (see Table 4 below) in reaction buffer. The microtiter plate was incubated for 120 min at the temperature of 32° C. The increase of fluorescence intensity was measured in appropriate fluorescence plate reader (e.g. TECAN Ultra) using the respective wavelengths for excitation and emission. IC50 values were calculated from percentage of inhibition of enzyme activity as a function of test compound concentration.
Table 4. Assay conditions for the evaluation of the selectivity of ADAMTS-7 modulators. Abbreviations: Dabcyl: 4-((4-(dimethylamino)phenyl)azo)benzoic acid; Glu(Edans): L-glutamic acid-γ-[2-(1-sulfonyl-5-naphthyl)-aminoethylamide]; Mca: (7-Methoxycoumarin-4-yl)acetyl; Dap(Dnp): (2S)-3-(2,4-dinitroanilino)-2-(9H-fluoren-9-ylmethoxycarbonylamino)propanoic acid; Dpa: N-3-(2, 4-Dinitrophenyl)-L-2,3-diaminopropionyl.
as §1

T1 sequence (Q9UKP4 with tags, fused parts or gaps with the stated changes): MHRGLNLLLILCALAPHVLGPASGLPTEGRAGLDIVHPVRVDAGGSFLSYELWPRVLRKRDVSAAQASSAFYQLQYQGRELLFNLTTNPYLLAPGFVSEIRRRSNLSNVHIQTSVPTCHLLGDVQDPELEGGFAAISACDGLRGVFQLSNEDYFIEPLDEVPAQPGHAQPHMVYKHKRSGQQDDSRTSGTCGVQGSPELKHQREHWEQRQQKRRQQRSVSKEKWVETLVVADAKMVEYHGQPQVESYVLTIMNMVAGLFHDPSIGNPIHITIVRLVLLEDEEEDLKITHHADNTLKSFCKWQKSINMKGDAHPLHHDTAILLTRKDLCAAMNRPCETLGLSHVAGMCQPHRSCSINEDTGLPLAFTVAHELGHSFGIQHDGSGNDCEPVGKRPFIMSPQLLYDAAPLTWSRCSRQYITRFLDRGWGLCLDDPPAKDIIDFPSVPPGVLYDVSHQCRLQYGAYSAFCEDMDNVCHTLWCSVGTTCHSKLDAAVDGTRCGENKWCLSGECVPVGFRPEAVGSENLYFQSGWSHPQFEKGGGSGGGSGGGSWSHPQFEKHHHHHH

The term IC50 denotes the concentration at which inhibition is half-maximal. Low readings indicate inhibition by little substance, high ones a need for much substance. As to `CC(C)(C)C1(CNC(=O)c2cnc(-c3ccccc3)o2)NC(=O)NC1=O` (racemic) [Example 12.4, rac-{[4-tert-butyl-2,5-dioxoimidazolidin-4-yl]methyl}-2-phenyl-1,3-oxazole-5-carboxamide], the IC50 on ADAMTS-7 came out at 480 nM.

Turning to `O=C1NC(=O)[C@](CNC(=O)c2cnn(-c3ccc(F)cn3)n2)(C2CC2)N1` [Example 12.1, N-{[(4R)-4-cyclopropyl-2,5-dioxoimidazolidin-4-yl]methyl}-2-(5-fluoropyridin-2-yl)-2H-1,2,3-triazole-4-carboxamide], the half-maximal inhibitory concentration (IC50) came to 4750 nM against ADAMTS-4 and 140 nM against ADAMTS-7.

For `O=C1NC(=O)[C@](CNC(=O)c2cnn(-c3cnccn3)n2)(C2CC2)N1` [Example 12.2, N-{[(4R)-4-cyclopropyl-2,5-dioxoimidazolidin-4-yl]methyl}-2-(pyrazin-2-yl)-2H-1,2,3-triazole-4-carboxamide], the IC50 stood at 24000 nM against ADAMTS-4 and 355 nM on ADAMTS-7.

Take `O=C1NC(=O)[C@](CNC(=O)c2cc(-c3cnn(CC4CC4)c3)no2)(C2CC2)N1` [Example 12.3, N-{[(4R)-4-cyclopropyl-2,5-dioxoimidazolidin-4-yl]methyl}-3-[1-(cyclopropylmethyl)-1H-pyrazol-4-yl]-1,2-oxazole-5-carboxamide]: the IC50 on ADAMTS-7 is 550 nM.

`Cn1cc(-c2cc(C(=O)NC[C@@]3(C4CC4)NC(=O)NC3=O)on2)cn1` [Example 12.5, N-{[(4R)-4-cyclopropyl-2,5-dioxoimidazolidin-4-yl]methyl}-3-(1-methyl-1H-pyrazol-4-yl)-1,2-oxazole-5-carboxamide]: the IC50 against ADAMTS-4 turned out to be 4690 nM; against ADAMTS-7, 52 nM.

The values above are taken from US20220412975A1, “CHARACTERIZING MODULATORS OF ADAMTS-7 AND ADAMTS-12” (The Broad Institute, Inc., priority 2019, published 2022).
